# Experimental data: article PMC9232501, “Results of the phase I CCTG IND.231 trial of CX-5461 in patients with advanced solid tumors enriched for DNA-repair deficiencies” (Nature Communications, 2022)
# Values joined by “and” are separate entries in the source; they are usually repeats but may differ in a detail not shown here. Equal values may be shown once.
# How the values were obtained:
# HCT116 cells [1] = assay: ROS measurement with H2DCFDA before/after UVA 125 mJ/cm^2; assay type: cell-based, Human; conditions: CX-5461 0.1 μM or PDS 10 μM for 1 h
# Protocol: ROS measurement with H2DCFDA: HCT116 cells were treated with vehicle, CX-5461 0.1 μM or PDS 10 μM for 1 h, then were added with H2DCFDA for 45 min before initial fluorescence measurement. Cells were then irradiated with UVA 125 mJ/cm^2, and immediately sent for a second fluorescent measurement. The ratio of the second and the first fluorescent measurement was calculated as the level of ROS induced by UVA. Assays were performed in the 1-hour time frame within which UV damage manifests, in contrast to G4 ligand-induced damage which takes 3–4 h to be measurable.
# (§1) Supplementary Figures and Tables
# (§2) Supplementary Figure 1. UVA radiation increased double-stranded DNA breaks and ROS.
# (§3) Representative pictures of g -H2AX immunofluorescent staining with and without UVA radiation, for […]
# condition, quantified in (b) Quantile and mean intensity of g-H2AX level per cell, vertical axis. UV and drug factor conditions, horizontal axis. Experiments were repeated two times (biological duplicates) and similar results were obtained. Number of cells as in Figure 5 g (c) The ratio of ROS level measured after UVA irradiation versus before UVA irradiation was calculated. Biological triplicates. The horizontal bar = median. ***P<0.0001, Welch’s t-test; n=8
# (1 picture or pasted object on this page, not shown here)
# HCT116 cells [2] = assay: HCT116 cytotoxicity (WST-1 assay) with and without UVA radiation; assay type: cell-based, Human; conditions: for WST-1 raw signal (Figure 5c): replicates
# Protocol: (§4) Fig. 5 Comparison of G4 ligand photosensitization. […] Vertical axis, fractional survival, horizontal axis log10 drug concentration (M) (f) Representative images of CPD immunofluorescent staining under UV and drug treatment conditions for U2OS cells, quantified from biological duplicates in (g) (h) Scale bar = 100um. U2OS cells were treated with drug or vehicle control, then immediately irradiated with UVA 125 mJ/cm^2; and fixed 1 h later for immunofluorescence staining with CPD antibody. g Distribution of mean intensity of CPD level per cell (total n = in labels), with two biological repeats per condition. Vertical axis, mean CPD intensity per cell, horizontal axis, conditions (h) WT or KO XPA HAP1 cells assayed for cytotoxicity. Vertical axis, fractional survival (WST-1 assay). The horizontal axis, log10 drug concentration (M). Error bars = standard deviation of the mean. Three biological repeats per condition.
# (§5) Human epidermal keratinocytes (HEKa) cells were sourced from Thermo Fisher Scientific, and were grown in EpiLife™ Medium with HKGS. HAP WT and XPA knockout cell lines (Horizon Discovery) were cultured in IMDM, 10% FCS. Human HCT116 cells, U2OS cells (ATCC) were grown in McCoy’s 5 A medium with 10% FBS and L-glutamine. All cell lines are mycoplasma free and have been authenticated by STR or SNP profiling. CX-5461 was provided by Senhwa Biosciences, Inc. PDS is from Sigma-Aldrich, BRACO-19 from Alfa Chemistry, PhENDC3 is from Sigma-Aldrich, γ -H2AX antibody from Abcam (1:1000 for IF) and CPD antibody (1:1500) from Cosmo Bio Ltd. (Catalog number: CAC-NM-DAD-001). The WST-1 assay was performed as previously described, γ H2AX foci staining was performed as previously described. Immunofluorescence staining of CPD was performed according to the protocol from the manufacturer (Cosmo Bio Ltd).
# [3] = tested on: BRCA2 and BRCA1-deficient tumor models; conditions: cited from earlier work
# [4] = tested on: γ-H2AX (double-stranded DNA breaks); assay: γ-H2AX immunofluorescent staining with and without UVA radiation; assay type: cell-based; conditions: CX5461 10^-8M, 5x10-8M; PDS 20 x 10^-6M
# Protocol: as §5, §1, §2, §3
# condition, quantified in (b) Quantile and mean intensity of g-H2AX level per cell, vertical axis. UV and drug factor conditions, horizontal axis. […] Number of cells as in Figure 5 g (c) The ratio of ROS level measured after UVA irradiation versus before UVA irradiation was calculated. […]
# U2OS cells = assay: CPD (cyclobutane pyrimidine dimer) immunofluorescence after UVA 125 mJ/cm^2; assay type: cell-based, Human; conditions: 1 h compound exposure
# Protocol: as §4
# Human epidermal keratinocytes (HEKa) cells were sourced from Thermo Fisher Scientific, and were grown in EpiLife™ Medium with HKGS. HAP WT and XPA knockout cell lines (Horizon Discovery) were cultured in IMDM, 10% FCS. Human HCT116 cells, U2OS cells (ATCC) were grown in McCoy’s 5 A medium with 10% FBS and L-glutamine. All cell lines are mycoplasma free and have been authenticated by STR or SNP profiling. […]
compound,measurement,setting,value
"NCCOc1cc(C(=O)Nc2cc(OCCN)c3ccccc3n2)nc(C(=O)Nc2cc(OCCN)c3ccccc3n2)c1 [PDS, pyridostatin]",ROS in the presence of UVA (ratio after/before UVA),HCT116 cells [1],not
same,potentiation of UVA-induced cytotoxicity,HCT116 cells [2]; UV 5 mJ/cm^2 and 125 mJ/cm^2,not
same,WST-1 raw signal (Figure 5c),"HCT116 cells [2]; conc 1.56e-6, 5mJ/cm2 UV",3.2786 and 3.1337
same,WST-1 raw signal (Figure 5c),"HCT116 cells [2]; conc 1.56e-6, 125 mJ/cm2 UV",2.9405 and 3.1793
same,WST-1 raw signal (Figure 5c),"HCT116 cells [2]; conc 1.56e-6, no UV",3.373 and 3.3554
same,WST-1 raw signal (Figure 5c),"HCT116 cells [2]; conc 3.13e-6, 5mJ/cm2 UV",2.8932 and 3.2752
same,WST-1 raw signal (Figure 5c),"HCT116 cells [2]; conc 3.13e-6, 125 mJ/cm2 UV",3.2783 and 2.5154
same,WST-1 raw signal (Figure 5c),"HCT116 cells [2]; conc 3.13e-6, no UV",3.1639 and 3.0204
same,WST-1 raw signal (Figure 5c),"HCT116 cells [2]; conc 6.25e-6, 5mJ/cm2 UV",3.1968 and 2.1952
same,WST-1 raw signal (Figure 5c),"HCT116 cells [2]; conc 6.25e-6, 125 mJ/cm2 UV",2.1994 and 1.9427
same,WST-1 raw signal (Figure 5c),"HCT116 cells [2]; conc 6.25e-6, no UV",2.8791 and 2.2497
same,WST-1 raw signal (Figure 5c),"HCT116 cells [2]; conc 1.25e-5, 5mJ/cm2 UV",0.8793 and 1.0754
same,WST-1 raw signal (Figure 5c),"HCT116 cells [2]; conc 1.25e-5, 125 mJ/cm2 UV",1.8196 and 1.0192
same,WST-1 raw signal (Figure 5c),"HCT116 cells [2]; conc 1.25e-5, no UV",1.2465 and 0.8301
same,WST-1 raw signal (Figure 5c),"HCT116 cells [2]; conc 2.5e-5, 5mJ/cm2 UV",0.2188 and 0.2466
same,WST-1 raw signal (Figure 5c),"HCT116 cells [2]; conc 2.5e-5, 125 mJ/cm2 UV",0.4428 and 0.3571
same,WST-1 raw signal (Figure 5c),"HCT116 cells [2]; conc 2.5e-5, no UV",0.23 and 0.2464
same,WST-1 raw signal (Figure 5c),"HCT116 cells [2]; conc 5e-5, 5mJ/cm2 UV",0.1582 and 0.148
same,WST-1 raw signal (Figure 5c),"HCT116 cells [2]; conc 5e-5, 125 mJ/cm2 UV",0.1729 and 0.1634
same,WST-1 raw signal (Figure 5c),"HCT116 cells [2]; conc 5e-5, no UV",0.1562 and 0.1551
same,WST-1 raw signal (Figure 5c),"HCT116 cells [2]; conc 1.95E-07, 5mJ/cm2 UV",3.319 and 3.3471
same,WST-1 raw signal (Figure 5c),"HCT116 cells [2]; conc 1.95E-07, 125 mJ/cm2 UV",2.9662 and 3.2767
same,WST-1 raw signal (Figure 5c),"HCT116 cells [2]; conc 1.95E-07, no UV",3.3384 and 3.3351
same,WST-1 raw signal (Figure 5c),"HCT116 cells [2]; conc 3.91E-07, 5mJ/cm2 UV",3.2173 and 2.6279
same,WST-1 raw signal (Figure 5c),"HCT116 cells [2]; conc 3.91E-07, 125 mJ/cm2 UV",3.2982
same,WST-1 raw signal (Figure 5c),"HCT116 cells [2]; conc 3.91E-07, no UV",3.3319 and 2.4545
same,WST-1 raw signal (Figure 5c),"HCT116 cells [2]; conc 7.81E-07, 5mJ/cm2 UV",3.0666 and 2.7778
same,WST-1 raw signal (Figure 5c),"HCT116 cells [2]; conc 7.81E-07, 125 mJ/cm2 UV",3.2287 and 3.2519
same,WST-1 raw signal (Figure 5c),"HCT116 cells [2]; conc 7.81E-07, no UV",3.286 and 3.3592
same,WST-1 raw signal (Figure 5c),"HCT116 cells [2]; conc 9.77E-08, 5mJ/cm2 UV",3.3085 and 3.2577
same,WST-1 raw signal (Figure 5c),"HCT116 cells [2]; conc 9.77E-08, 125 mJ/cm2 UV",3.2825 and 3.2983
same,WST-1 raw signal (Figure 5c),"HCT116 cells [2]; conc 9.77E-08, no UV",3.2977 and 3.3288
same,synthetic lethality with loss of HR repair,[3],synthetic lethal
same,DNA damage (γ-H2AX) in the presence of UVA,[4],not
same,potentiation of CPD formation by UVA,U2OS cells,not
